The nature of this series: recombinant UMI read abundance after kanamycin selection (control-corrected) (log10(CPM+1)); higher = more efficient recombination; extreme values may be limits of the assay; sequences stand for … in AGTGCAGAGAAAATCGGCCAGTTTTCTCTGCCTGCAGTCCGCATGCCGTGGGACCCCTTGGGTTCTAACCTGTTGCCTAGATTTATGCAGCGGACTGCCTTTCTCCCAAAGTGATAAACCGG…AGGTTGGTTTCACT; site = the 11-nt donor. The method, boiled down: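 After plating on IPTG (0.07 mM) plus kanamycin, or unselected, in two replicates, recombinant UMIs were PCR-amplified across the donor–target junction and sequenced. The cells were Escherichia coli co-electroporated with a UMI-tagged donor and donor-binding-loop pair library and a target plasmid with a fixed target and T7-inducible IS621 bridge recombinase. Values are log10(CPM+1), with CPM averaged over replicates and scaled by control-derived factors.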
Turning to “CAATCGCCATGGACCGGTTTTCCCGGTAATCCGTATTTGTG (site CAAGCGCCTCA)”, the “recombinant UMI read abundance (log10)” value amounted to 0.0173.

For “CAATCGCCATGGACCGGTTTTCCCGGTAATCCGTATTTGTG (site CAATCGCCTCA)”, the “recombinant UMI read abundance (log10)” value stood at 0.22.

Take “CAATCGTCATGGACCGGTTTTCCCGGTAATCCGTATTTGCT (site CAATCGTCTAG)”: the “recombinant UMI read abundance (log10)” value came to 2.84.

As for “CAATCGTCATGGACCGGTTTTCCCGGTAATCCGTATTTGCT (site CGATCATCTAG)”, the “recombinant UMI read abundance (log10)” value amounted to 0.

As to “CAATCTACATGGACCGGTTTTCCCGGTAATCCGTATTTGTC (site CAATCTACTGA)”, the “recombinant UMI read abundance (log10)” value is 2.28.

In the case of “CAATGGCCATGGACCGGTTTTCCCGGTAATCCGTATTTGCA (site AAATGGCCTTG)”, the “recombinant UMI read abundance (log10)” value was 0.

With “CAATGGCCATGGACCGGTTTTCCCGGTAATCCGTATTTGCA (site CAATGGCCTTG)”, the “recombinant UMI read abundance (log10)” value is 0.253.

For the sequence “CAATGGCCATGGACCGGTTTTCCCGGTAATCCGTATTTGCA (site GAATGGCCTTG)”, the “recombinant UMI read abundance (log10)” value was 0.

Regarding “CAATGGCCATGGACCGGTTTTCCCGGTAATCCGTATTTGCA (site TAATGGCCTTG)”, the “recombinant UMI read abundance (log10)” value was 0.198.

In the case of “CAATTACCATGGACCGGTTTTCCCGGTAATCCGTATTTGCT (site CAATTACCTAG)”, the “recombinant UMI read abundance (log10)” value is 0.

On to “CAATTACCATGGACCGGTTTTCCCGGTAATCCGTATTTGCT (site CAATTCCCTAG)”, for which the “recombinant UMI read abundance (log10)” value came to 0.

As to “CAATTACCATGGACCGGTTTTCCCGGTAATCCGTATTTGCT (site CAATTGCCTAG)”, the “recombinant UMI read abundance (log10)” value came to 0.

As for “CAATTACCATGGACCGGTTTTCCCGGTAATCCGTATTTGCT (site CAATTTCCTAG)”, the “recombinant UMI read abundance (log10)” value was 0.

As for “CAATTCCCATGGACCGGTTTTCCCGGTAATCCGTATTTGTT (site CAATTCCCTAA)”, the “recombinant UMI read abundance (log10)” value was 1.71.

Turning to “CAATTCCCATGGACCGGTTTTCCCGGTAATCCGTATTTGTT (site CAATTCCCTAC)”, the “recombinant UMI read abundance (log10)” value came out at 0.942.

As to “CAATTCCCATGGACCGGTTTTCCCGGTAATCCGTATTTGTT (site CAATTCCCTAG)”, the “recombinant UMI read abundance (log10)” value turned out to be 1.41.

As to “CAATTCCCATGGACCGGTTTTCCCGGTAATCCGTATTTGTT (site CAATTCCCTAT)”, the “recombinant UMI read abundance (log10)” value turned out to be 1.15.

Regarding “CAATTGACATGGACCGGTTTTCCCGGTAATCCGTATTTGCG (site CAATTGACTCG)”, the “recombinant UMI read abundance (log10)” value was 2.58.

As for “CAATTGGCATGGACCGGTTTTCCCGGTAATCCGTATTTGGA (site CAATTGGCTTC)”, the “recombinant UMI read abundance (log10)” value amounted to 0.902.

For “CAATTGGCATGGACCGGTTTTCCCGGTAATCCGTATTTGGA (site CACTTGGCTTC)”, the “recombinant UMI read abundance (log10)” value is 0.0126.

Turning to “CAATTGGCATGGACCGGTTTTCCCGGTAATCCGTATTTGGA (site CAGTTGGCTTC)”, the “recombinant UMI read abundance (log10)” value came out at 0.585.

Consider “CAATTGGCATGGACCGGTTTTCCCGGTAATCCGTATTTGGA (site CATTTGGCTTC)”, for which the “recombinant UMI read abundance (log10)” value was determined as 0.313.

Regarding “CACACAACATGGACCGGTTTTCCCGGTAATCCGTATTTGAA (site CACACAACTTT)”, the “recombinant UMI read abundance (log10)” value was 1.84.

Take “CACACGGCATGGACCGGTTTTCCCGGTAATCCGTATTTGAG (site CACACGGCTCT)”: the “recombinant UMI read abundance (log10)” value is 1.83.

For “CACAGGGCATGGACCGGTTTTCCCGGTAATCCGTATTTGAG (site CACAGGGCTCT)”, the “recombinant UMI read abundance (log10)” value came to 1.97.

On to “CACATATCATGGACCGGTTTTCCCGGTAATCCGTATTTGTC (site CACATATCTGA)”, for which the “recombinant UMI read abundance (log10)” value turned out to be 1.5.

As for “CACATATCATGGACCGGTTTTCCCGGTAATCCGTATTTGTC (site CCCATATCTGA)”, the “recombinant UMI read abundance (log10)” value came to 0.724.

As to “CACATATCATGGACCGGTTTTCCCGGTAATCCGTATTTGTC (site CGCATATCTGA)”, the “recombinant UMI read abundance (log10)” value was found to be 0.92.

As to “CACATATCATGGACCGGTTTTCCCGGTAATCCGTATTTGTC (site CTCATATCTGA)”, the “recombinant UMI read abundance (log10)” value is 0.

Consider “CACATCCCATGGACCGGTTTTCCCGGTAATCCGTATTTGCA (site CACATCCCTTG)”, for which the “recombinant UMI read abundance (log10)” value came to 2.

Consider “CACCGTTCATGGACCGGTTTTCCCGGTAATCCGTATTTGTG (site CACCGTTCTCA)”, for which the “recombinant UMI read abundance (log10)” value was determined as 1.9.

“CACCTGCCATGGACCGGTTTTCCCGGTAATCCGTATTTGAC (site CACCTGCCTGT)”: the “recombinant UMI read abundance (log10)” value was determined as 0.

For “CACGCCCCATGGACCGGTTTTCCCGGTAATCCGTATTTGTT (site CACGACCCTAA)”, the “recombinant UMI read abundance (log10)” value was found to be 0.0224.

On to “CACGCCCCATGGACCGGTTTTCCCGGTAATCCGTATTTGTT (site CACGCCCCTAA)”, for which the “recombinant UMI read abundance (log10)” value came out at 0.348.

Regarding “CACGCCCCATGGACCGGTTTTCCCGGTAATCCGTATTTGTT (site CACGGCCCTAA)”, the “recombinant UMI read abundance (log10)” value turned out to be 0.

Turning to “CACGCCCCATGGACCGGTTTTCCCGGTAATCCGTATTTGTT (site CACGTCCCTAA)”, the “recombinant UMI read abundance (log10)” value came to 0.0223.

For “CACGCCTCATGGACCGGTTTTCCCGGTAATCCGTATTTGCC (site CACACCTCTGG)”, the “recombinant UMI read abundance (log10)” value is 2.73.

With “CACGCCTCATGGACCGGTTTTCCCGGTAATCCGTATTTGCC (site CACCCCTCTGG)”, the “recombinant UMI read abundance (log10)” value came to 1.65.

As to “CACGCCTCATGGACCGGTTTTCCCGGTAATCCGTATTTGCC (site CACGCCTCTGG)”, the “recombinant UMI read abundance (log10)” value amounted to 3.32.

For “CACGCCTCATGGACCGGTTTTCCCGGTAATCCGTATTTGCC (site CACTCCTCTGG)”, the “recombinant UMI read abundance (log10)” value amounted to 2.11.

As for “CACGCGACATGGACCGGTTTTCCCGGTAATCCGTATTTGTA (site CACGCGACTTA)”, the “recombinant UMI read abundance (log10)” value worked out at 2.4.

For “CACGGCCCATGGACCGGTTTTCCCGGTAATCCGTATTTGAT (site CACGGCCCTAA)”, the “recombinant UMI read abundance (log10)” value came out at 0.0181.

“CACGGCCCATGGACCGGTTTTCCCGGTAATCCGTATTTGAT (site CACGGCCCTAC)”: the “recombinant UMI read abundance (log10)” value is 0.0396.

On to “CACGGCCCATGGACCGGTTTTCCCGGTAATCCGTATTTGAT (site CACGGCCCTAG)”, for which the “recombinant UMI read abundance (log10)” value is 0.

Turning to “CACGGCCCATGGACCGGTTTTCCCGGTAATCCGTATTTGAT (site CACGGCCCTAT)”, the “recombinant UMI read abundance (log10)” value amounted to 0.255.

“CACGGCCCATGGACCGGTTTTCCCGGTAATCCGTATTTGGT (site CACGGCCCTAA)”: the “recombinant UMI read abundance (log10)” value is 0.0236.

As for “CACGGCCCATGGACCGGTTTTCCCGGTAATCCGTATTTGGT (site CACGGCCCTAC)”, the “recombinant UMI read abundance (log10)” value came to 0.00703.

Consider “CACGGCCCATGGACCGGTTTTCCCGGTAATCCGTATTTGGT (site CACGGCCCTAG)”, for which the “recombinant UMI read abundance (log10)” value was 0.

For the sequence “CACGGCCCATGGACCGGTTTTCCCGGTAATCCGTATTTGGT (site CACGGCCCTAT)”, the “recombinant UMI read abundance (log10)” value was found to be 0.456.

Regarding “CACGGCCCATGGACCGGTTTTCCCGGTAATCCGTATTTGTA (site CACGGCCCTAA)”, the “recombinant UMI read abundance (log10)” value was 0.00609.

“CACGGCCCATGGACCGGTTTTCCCGGTAATCCGTATTTGTA (site CACGGCCCTCA)”: the “recombinant UMI read abundance (log10)” value was 0.0202.

In the case of “CACGGCCCATGGACCGGTTTTCCCGGTAATCCGTATTTGTA (site CACGGCCCTGA)”, the “recombinant UMI read abundance (log10)” value came to 1.81.

For the origin of these results see the supplement of paper PMC11208160.
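Further: IS621 bridge recombinase in Escherichia coli cells against a fixed T5 target plasmid.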
